Several values for one entry are separate records, joined by “and”; a condition that tells them apart may be missing. Identical values can stand only once.
Tested on: Geobacillus stearothermophilus spores
Type: cell-based
Protocol: Geobacillus stearothermophilus spores are resuspended in potassium ferricyanide concentrations ranging from 0.5 μg/ml to 200 mg/ml in samples having a spore concentration of 1E8 per ml (1×10^8 spores per milliliter). SCBI vials are inoculated with 20 μl (≈2 million spores) of each of the sample suspensions and air dried at least overnight. The SCBIs are then capped and run in a VHP BIER vessel for the times shown in Table 1 below using a 0.8 g injection of 59% hydrogen peroxide.
Geobacillus stearothermophilus spores are resuspended in Prussian blue concentrations ranging from 0.5 μg/ml to 123 mg/ml at a spore concentration of 1E8 per ml. SCBI vials are inoculated with 20 μl (≈2 million spores) of the appropriate suspension and air dried at least overnight. The SCBIs are then capped and run in a VHF) BIER vessel for the times listed below using a 0.8 g injection of 59% hydrogen peroxide.

[C-]#N.[C-]#N.[C-]#N.[C-]#N.[C-]#N.[C-]#N.[C-]#N.[C-]#N.[C-]#N.[C-]#N.[C-]#N.[C-]#N.[C-]#N.[C-]#N.[C-]#N.[C-]#N.[C-]#N.[C-]#N.[Fe+2].[Fe+2].[Fe+2].[Fe+3].[Fe+3].[Fe+3].[Fe+3] [Prussian Blue, Prussian blue]
Killed/Total Samples: 0/10 and 8/10 and 3/10 and 7/10* and 1/10* and 6/10* and 2/10* and 10/10 | grow out results compared with potassium ferricyanide (Table 1): comparable results

From patent US8822174B1, “Sterilization indicator for oxidative sterilants” (priority 2013, dated 2014)
